Columns and labels:
[1] = molecular target: T1, recombinant human glucokinase (Homo sapiens, UniProt P35557); test: Assay 2: activator potency in a matrix assay at multiple glucose concentrations (22 compound x 16 glucose concentrations); assay type: biochemical; conditions: concentration of compound affording a 50% reduction in the enzyme's Km for glucose, read-out: Intrinsic EC50
T1 construct: His tag; made in house; host or cells: E. coli BL21(DE3), pBCGK vector
T1 sequence (P35557 1-465): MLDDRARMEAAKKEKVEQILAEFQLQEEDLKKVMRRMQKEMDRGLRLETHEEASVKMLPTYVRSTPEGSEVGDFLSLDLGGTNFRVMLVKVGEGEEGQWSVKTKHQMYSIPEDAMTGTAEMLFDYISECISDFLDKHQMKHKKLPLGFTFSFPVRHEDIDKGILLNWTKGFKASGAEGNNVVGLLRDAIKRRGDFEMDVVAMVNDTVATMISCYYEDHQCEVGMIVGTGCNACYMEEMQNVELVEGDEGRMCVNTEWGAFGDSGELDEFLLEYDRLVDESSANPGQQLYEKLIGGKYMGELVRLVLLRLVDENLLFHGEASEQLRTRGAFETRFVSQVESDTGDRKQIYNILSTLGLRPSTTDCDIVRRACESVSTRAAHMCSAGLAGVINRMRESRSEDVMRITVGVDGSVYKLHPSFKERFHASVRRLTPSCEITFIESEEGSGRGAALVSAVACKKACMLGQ
Protocol: Representative compounds of this invention were evaluated in biochemical assays (Assay 1 or Assay 2) to characterize their glucokinase activation properties. The recombinant human glucokinase protein utilized in both assays was prepared and purified as described below. • Beta Cell Glucokinase His-Tag Growth and Induction Conditions: BL21(DE3) cells (Invitrogen Corporation, Carlsbad, Calif.) containing pBCGK (C or N His) vector were grown at 37° C. (in 2XYT) until the OD600 was between 0.6-1.0. Expression was induced by addition of isopropylthiogalactoside to a final concentration of 0.1-0.2 mM to the cells which were then incubated overnight at 23° C. The next day, cells were harvested via centrifugation at 5000 rpm for 15 minutes at 4° C. The cell pellet was stored at −80° C. for future purification. • Beta Cell Glucokinase His-Tag Purification Conditions: A Ni-NTA (Quigan, Germantown, Md.) column (15-50 mL) was used for separation. Two buffers were prepared, 1) a lysis/nickel equilibration and wash buffer and 2) a nickel elution buffer. The lysis/equilibration/wash buffer was prepared as such: 25 mM HEPES buffer at pH 7.5, 250 mM NaCl, 20 mM imidazole, and 14 mM […] as final concentrations. The elution buffer was prepared as such: 25 mM HEPES at pH 7.5, 250 mM NaCl, 400 mM imidazole, and 14 mM β-mercaptoethanol as final concentrations. The buffers were each filtered with a 0.22 μm filter prior to use. The cell pellet (1 L culture) was resuspended in 300 mL of the lysis/equilibration buffer. The cells were then lysed (3 times) with a Microfluidics Model 110Y microfluidizer (Microfluidics Corporation, Newton, Mass.). The slurry was centrifuged with a Beckman Coulter Model LE-80K ultracentrifuge (Beckman Coulter, Fullerton, Calif.) at 40,000 rpm for 45 minutes at 4° C. The supernatant was transferred to a chilled flask. A volume of 20 μl was saved for gel analysis. A Pharmacia AKTA (GMI, Inc., Ramsey, Minn.) purification system was used for separation. The prime lines were purged with lysis/equilibration buffer. The Ni-NTA column was equilibrated with 200 mL of the lysis/equilibration buffer at a flow rate of 5 mL/minute. The supernantant was loaded over the column at 4 mL/minute and the flow-through was collected in a flask. The unbound proteins were washed with lysis/equilibration buffer at a flow rate of 5 mL/minute until the ultraviolet reaches baseline. The protein was then eluted from the column with the imidazole elution buffer via imidazole gradient 20 mM to 400 mM over 320 mL. The column was then stripped of any additional protein with 80 mL of the elution buffer. The elution fractions were each 8 mL, for a total yield of 50 samples. Fractions were analyzed by sodium dodecyl sulfate polyacrylamide (SDS-PAGE) and the fractions containing protein of interest were pooled and concentrated to 10 mL using ultrafiltration cell with a 10,000 molecular weight cut-off (MWCO) Millipore membrane (Sigma-Aldrich, St. Louis, Mo.) under nitrogen gas (60 psi). Protein was further purified by size exclusion chromatography (SEC) using a […] (320 mL) (Amersham Pharmacia, Uppsala, Sweden). SEC was equilibrated with 450 mL sizing buffer containing 25 mM HEPES pH 7.0, 50 mM NaCl, and 5 mM dithiothreitol. […] The fractions were analyzed by SDS-PAGE and protein containing fractions were pooled. Concentration was measured using Bradford Assay/BSA Standard. […]

[2] = molecular target: T2, recombinant human glucokinase (beta cell isoform, His-tagged) (Homo sapiens, UniProt P35557); test: Assay 1: activator potency and maximum activation at 5 mM glucose (coupled PK/LDH, NADH depletion, A340); assay type: biochemical; conditions: for Emax: % Maximum Activation=(Va/Vo−1)×100; for EC50: glucokinase activation, pH 7.1, room temperature
T2 construct: Full-length glucokinase (beta cell isoform) was His-tagged at the N-terminus; His tag (N); made in house; host or cells: E. coli BL21(DE3), pBCGK vector
T2 sequence (P35557 1-465): T1 sequence (P35557 1-465)
Protocol: Representative compounds of this invention were evaluated in biochemical assays (Assay 1 or Assay 2) to characterize their glucokinase activation properties. The recombinant human glucokinase protein utilized in both assays was prepared and purified as described below. • Beta Cell Glucokinase His-Tag Growth and Induction Conditions: BL21(DE3) cells (Invitrogen Corporation, Carlsbad, Calif.) containing pBCGK (C or N His) vector were grown at 37° C. (in 2XYT) until the OD600 was between 0.6-1.0. Expression was induced by addition of isopropylthiogalactoside to a final concentration of 0.1-0.2 mM to the cells which were then incubated overnight at 23° C. The next day, cells were harvested via centrifugation at 5000 rpm for 15 minutes at 4° C. The cell pellet was stored at −80° C. for future purification. • Beta Cell Glucokinase His-Tag Purification Conditions: A Ni-NTA (Quigan, Germantown, Md.) column (15-50 mL) was used for separation. Two buffers were prepared, 1) a lysis/nickel equilibration and wash buffer and 2) a nickel elution buffer. The lysis/equilibration/wash buffer was prepared as such: 25 mM HEPES buffer at pH 7.5, 250 mM NaCl, 20 mM imidazole, and 14 mM […] as final concentrations. The elution buffer was prepared as such: 25 mM HEPES at pH 7.5, 250 mM NaCl, 400 mM imidazole, and 14 mM β-mercaptoethanol as final concentrations. The buffers were each filtered with a 0.22 μm filter prior to use. The cell pellet (1 L culture) was resuspended in 300 mL of the lysis/equilibration buffer. The cells were then lysed (3 times) with a Microfluidics Model 110Y microfluidizer (Microfluidics Corporation, Newton, Mass.). The slurry was centrifuged with a Beckman Coulter Model LE-80K ultracentrifuge (Beckman Coulter, Fullerton, Calif.) at 40,000 rpm for 45 minutes at 4° C. The supernatant was transferred to a chilled flask. A volume of 20 μl was saved for gel analysis. A Pharmacia AKTA (GMI, Inc., Ramsey, Minn.) purification system was used for separation. The prime lines were purged with lysis/equilibration buffer. The Ni-NTA column was equilibrated with 200 mL of the lysis/equilibration buffer at a flow rate of 5 mL/minute. The supernantant was loaded over the column at 4 mL/minute and the flow-through was collected in a flask. The unbound proteins were washed with lysis/equilibration buffer at a flow rate of 5 mL/minute until the ultraviolet reaches baseline. The protein was then eluted from the column with the imidazole elution buffer via imidazole gradient 20 mM to 400 mM over 320 mL. The column was then stripped of any additional protein with 80 mL of the elution buffer. The elution fractions were each 8 mL, for a total yield of 50 samples. Fractions were analyzed by sodium dodecyl sulfate polyacrylamide (SDS-PAGE) and the fractions containing protein of interest were pooled and concentrated to 10 mL using ultrafiltration cell with a 10,000 molecular weight cut-off (MWCO) Millipore membrane (Sigma-Aldrich, St. Louis, Mo.) under nitrogen gas (60 psi). Protein was further purified by size exclusion chromatography (SEC) using a […] (320 mL) (Amersham Pharmacia, Uppsala, Sweden). SEC was equilibrated with 450 mL sizing buffer containing 25 mM HEPES pH 7.0, 50 mM NaCl, and 5 mM dithiothreitol. Concentrated protein was then loaded over SEC and elution with 400 mL sizing buffer was performed overnight at 0.5 mL/minute. The elution fractions were 5 mL each. The fractions were analyzed by SDS-PAGE and protein containing fractions were pooled. Concentration was measured using Bradford Assay/BSA Standard. Purified protein was stored in small aliquots at −80° C. Assay 1: Evaluating Activator Potency and Maximum Activation at 5 mM Glucose
Full-length glucokinase (beta cell isoform) was His-tagged at the N-terminus and purified by a Ni column followed by size exclusion chromatography as described above. […]

| SMILES | EC50 [1] [µM] | Emax [2] [%] | EC50 [2] [µM] |
| --- | --- | --- | --- |
| CC(C)C[C@@H](C(=O)Nc1ccc(C(=O)O)cn1)n1cc(C(F)(F)F)ncc1=O [Example 7, (S)-6-(4-methyl-2-(2-oxo-5-(trifluoromethyl)pyrazin-1(2H)-yl)pentanamido)nicotinic acid] | 3.3 |  |  |
| Cc1ccc(NC(=O)[C@H](CC2CCCC2)n2cc(C(F)(F)F)ncc2=O)nc1 [Example 4, (S)-3-cyclopentyl-N-(5-methylpyridin-2-yl)-2-(2-oxo-5-(trifluoromethyl)pyrazin-1(2H)-yl)propanamide] |  | 99 to 100 | 0.27 to 0.37 |
| O=C(O)c1ccc(NC(=O)[C@H](CC2CCCC2)n2cc(C(F)(F)F)ncc2=O)nc1 [Example 2, (S)-6-(3-cyclopentyl-2-(2-oxo-5-(trifluoromethyl)pyrazin-1(2H)-yl)propanamido)nicotinic acid] |  | 117 | 0.453 |
| O=C(O)c1ccc(NC(=O)[C@H](CC2CCOCC2)n2cc(C(F)(F)F)ncc2=O)nc1 [Example 6, (S)-6-(2-(2-oxo-5-(trifluoromethyl)pyrazin-1(2H)-yl)-3-(tetrahydro-2H-pyran-4-yl)propanamido)nicotinic acid] | 8.9 |  |  |
| Cc1ccc(NC(=O)[C@H](CC2CCOCC2)n2cc(C(F)(F)F)ncc2=O)nc1 [Example 1, (S)-N-(5-methylpyridin-2-yl)-2-(2-oxo-5-(trifluoromethyl)pyrazin-1(2H)-yl)-3-(tetrahydro-2H-pyran-4-yl)propanamide] |  | 100 | 64 |
| O=C(O)c1ccc(NC(=O)[C@H](CC2CCC2)n2cc(C(F)(F)F)ncc2=O)nc1 [Example 9, (S)-6-(3-cyclobutyl-2-(2-oxo-5-(trifluoromethyl)pyrazin-1(2H)-yl)propanamido)nicotinic acid] | 1.25 |  |  |
| O=C(O)c1ccc(NC(=O)[C@H](CC2CCCCC2)n2cc(C(F)(F)F)ncc2=O)nc1 [Example 5, (S)-6-(3-cyclohexyl-2-(2-oxo-5-(trifluoromethyl)pyrazin-1(2H)-yl)propanamido)nicotinic acid] | 0.22 to 0.31 |  |  |
| O=C(Nc1cnccn1)[C@H](CC1CCCC1)n1cc(C(F)(F)F)ncc1=O [Example 3, (S)-3-cyclopentyl-2-(2-oxo-5-(trifluoromethyl)pyrazin-1(2H)-yl)-N-(pyrazin-2-yl)propanamide] |  | 139 to 143 | 5.6 to 7.1 |
| O=C(O)Cc1ccc(NC(=O)[C@H](CC2CCCC2)n2cc(C(F)(F)F)ncc2=O)nc1 [Example 8, (S)-2-(6-(3-cyclopentyl-2-(2-oxo-5-(trifluoromethyl)pyrazin-1(2H)-yl)propanamido)pyridin-3-yl)acetic acid] | 2.3 |  |  |

— patent US8071606B2, “Substituted pyrazinone amides useful for activation of glucokinase” (Pfizer Inc., priority 2009, dated 2011)
